The structures appear in SMILES notation. Read-outs that look alike come from different tables or passages of the source. Bounds are passed on as bounds.

Assay [1] relates to HCV replicon RNA in replicon cells (Huh-7). The experiment in a line: HCV Replicon Assay (reduction of HCV RNA, QuantiGene). The conditions noted are these: Hepatitis C virus; for IC50: read-out: HCV Replicon (IC50); for EC50: first part of Table 1 (scaffold drawing 18). Format: cell-based. The procedure: The anti-HCV activity of the quinoxaline derivatives was tested by replicon and BVDV cell-line based assays. The HCV NS5B polymerase activity was tested as described below, and was further tested for its capability of inhibition of replication of the hepatitis C virus in a cell-line based HCV replicon assay as described in V. Lohmann, F. Komer, J.-O. Koch, U. Herian, L. Theilmann, R. Bartenschlager, “Replication of a Subgenomic Hepatitis C virus RNAs in a Hepatoma Cell Line”, Science, 1999, 285:110.
HCV Replicon Assay. The replicon cells (Huh-7) contain replicating HCV replicon RNA, which was modified in the structural region (replacing the structural region with a neomycin resistance marker). Survival of the replicon cells under G418 selection relies on the replication of HCV RNA and subsequently expression of neomycin phosphoryltransferase. The ability of modified nucleoside libraries and compounds to suppress HCV RNA replication was determined using the QuantiGene™ Assay Kit (Bayer Diagnostics, Tarrytown N.Y.). The assay measures the reduction of HCV RNA molecules in the treated cells. Replicon cells were incubated at 37° C. for 3 days in the presence of nucleoside libraries and compounds before being harvested for detection. The assay protocol was modified based on literature procedure (V. Lohmann, F. Komer, J. O. Koch, U. Herian, L. Theilmann, R. Bartenschlager, Science, 1999, 285, 110–113). The HCV subgenomic replicon cell line was provided by Dr. R. Bartenschlager.
Background: In antiviral work, replicon cells carry a viral genome segment that copies itself.

In a further assay the target is T1, HCV NS5B polymerase (Hepatitis C virus genotype 1b, UniProt Q9WMX2).
T1 construct: HCV NS5B was derived from a cDNA clone encoding HCV-1b CON1 strain, and was expressed and purified from E. coli; made in house; host or cells: E. coli
Briefly: De novo RNA synthesis activity assay for HCV NS5B polymerase. The class given is biochemical, HCV-1b CON1 strain. From the text: HCV NS5B was derived from a cDNA clone encoding HCV-1b CON1 strain, and was expressed and purified from E. coli. Various [α-^33P]rNTPs (3000 Ci/mmol) were purchased from Perkin Elmer. 3′-Deoxy ribonucleosides, their 5′-triphosphates and dinucleotide primers were from Sigma, TriLink (San Diego, Calif.) or ICN Biochemicals. All other reagents were of the highest grade available from ICN, Sigma, Fisher, or Ambion.
An HCV mini-genome of 2.1-kb contains an entire 5′-UTR (untranslated region), part of NS5B sequence and an entire 3′-UTR was constructed from an internal deletion between two KpnI sites on the HCV replicon plasmid, pFK389/NS3-3′. To generate the in vitro transcribed mini-genome RNA, the plasmid DNA was linearized with AseI and ScaI and transcribed in vitro using a MegaScript kit (Ambion, Austin, Tex.). After phenol-chloroform extraction and isopropanol precipitation, the RNA was resuspended in RNase-free water and stored at −80° C. before use. This HCV strain CON1-based template was used for the standard NS5B-catalyzed RNA synthesis assay.
A standard NS5B activity assay was performed at 23C in a total volume of 25 μl. The reaction buffer contained 50 mM Tris, pH 7.0, 10 mM MgCl2, 50 mM NaCl, 5 mM DTT (add fresh) and 0.05 mg/ml BSA. 0.4 μg of the RNA template was incubated with NS5B enzyme (250 nM) before adding a mixture of radiolabeled nucleotide (0.2 μCi) and cold nucleotide cocktail to initiate a reaction. The assay was incubated for 1 hr and terminated by addition of 75 μl of 5% trichloroacetic acid (TCA) and 0.05% pyrophosphate solution. The quenched solution was incubated at room temperature for 10 min to precipitate out polymeric products and subsequently transferred to a 96-well white GF/B filter microplate (Packard Instrument) using a Packard Filtermate Universal Harvester. The filter plate was washed five times by water and one time by ethanol before vacuum drying. 40 μl of liquid scintillation cocktail (Packard MicroSint™) was added to each well. Radioactivity incorporated into the product was counted in a 96-well format using a Packard TopCount. IC50 values, defined as the inhibitor concentration to suppress 50% of NS5B activity, were determined by varying the compound concentration. The results in Table 1 are data obtained using the HCV NS5B assays described above.

Setting [2] is: 72 h, Huh-7 replicon cells, 3 days at 37° C., second part of Table 1 (scaffold drawing 19).
Setting [3] is: NS5B 250 nM, 23C, 1 hr, second part of Table 1 (scaffold drawing 19), read-out: HCV NS5B (EC50).
Setting [4] is: 72 h, Huh-7 replicon cells, 3 days at 37° C.

T1 sequence (Q9WMX2 2420-3010): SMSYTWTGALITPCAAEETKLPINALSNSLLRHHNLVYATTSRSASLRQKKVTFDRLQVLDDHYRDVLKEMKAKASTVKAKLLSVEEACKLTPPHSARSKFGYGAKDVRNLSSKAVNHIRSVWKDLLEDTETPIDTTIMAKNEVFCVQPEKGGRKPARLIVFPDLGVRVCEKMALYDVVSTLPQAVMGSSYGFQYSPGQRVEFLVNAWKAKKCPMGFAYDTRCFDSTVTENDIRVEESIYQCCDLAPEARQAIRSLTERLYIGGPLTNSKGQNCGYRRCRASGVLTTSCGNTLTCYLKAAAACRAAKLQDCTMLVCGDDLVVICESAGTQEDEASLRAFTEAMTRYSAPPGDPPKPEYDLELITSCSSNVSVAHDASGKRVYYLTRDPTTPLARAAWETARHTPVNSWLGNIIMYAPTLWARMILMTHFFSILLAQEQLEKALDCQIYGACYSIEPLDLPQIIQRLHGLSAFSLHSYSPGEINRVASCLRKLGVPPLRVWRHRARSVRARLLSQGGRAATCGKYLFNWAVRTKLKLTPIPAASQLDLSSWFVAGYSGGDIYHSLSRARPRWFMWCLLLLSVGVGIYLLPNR

For `COC(=O)c1ccc2nc(-c3ccc(F)cc3)c(-c3ccc(F)cc3)nc2c1`, the half-inhibitory concentration (IC50) (as a rule, the concentration that gives 50% inhibition) in assay [1] (setting [2]) is over 50 µM. Moreover, at HCV NS5B polymerase, the EC50 (in general, the midpoint of the concentration-response curve) is over 50 µM.

As to `O=C(O)c1ccc2nc(-c3ccccc3)c(-c3ccccc3)nc2c1`, in assay [1] (setting [2]), the 50% inhibitory concentration (IC50) is over 50 µM. Moreover, the EC50 on HCV NS5B polymerase was under 10 µM.

On HCV NS5B polymerase, `O=C(N[C@@H](Cc1c[nH]c2ccccc12)C(=O)O)c1ccc2nc(-c3ccccc3)c(-c3ccccc3)nc2c1` returned a concentration giving a half-maximal response (EC50) of 10 to 50 µM.

For the compound `O=C(N[C@@H](Cc1c[nH]c2ccc(O)cc12)C(=O)O)c1ccc2nc(-c3ccccc3)c(-c3ccccc3)nc2c1`, at HCV NS5B polymerase (setting [3]), the concentration giving a half-maximal response (EC50) was over 50 µM.

On to `COC(=O)[C@H](Cc1c[nH]c2ccccc12)NC(=O)c1ccc2nc(-c3ccccc3)c(-c3ccccc3)nc2c1`, for which the EC50 on HCV NS5B polymerase (setting [3]) was over 50 µM.

For the compound `O=C(O)c1ccc2nc(-c3ccccn3)c(-c3ccccn3)nc2c1`, the half-maximal inhibitory concentration (IC50) in assay [1] (setting [2]) was over 50 µM. At HCV NS5B polymerase, this compound returned an EC50 of over 50 µM.

On to `COC(=O)[C@H](Cc1c[nH]c2ccccc12)NC(=O)c1ccc2nc(-c3ccccn3)c(-c3ccccn3)nc2c1`, for which, in assay [1] (setting [2]), the IC50 is over 50 µM. The same compound returned a half-maximal effective concentration (EC50) at HCV NS5B polymerase of over 50 µM.

`O=C(N[C@@H](Cc1c[nH]c2ccccc12)C(=O)O)c1ccc2nc(-c3ccccn3)c(-c3ccccn3)nc2c1`: the IC50 in assay [1] (Huh-7, 72 h) was over 50 µM. Also, the EC50 on HCV NS5B polymerase was over 50 µM.

Regarding `Cc1ccc(-c2nc3cc(C(=O)O)ccc3nc2-c2ccc(Cl)cc2)cc1`, in assay [1] (Huh-7, 72 h), the concentration for half-maximal inhibition (IC50) lay in the range of 10 to 50 µM. Also, at HCV NS5B polymerase (setting [3]), the EC50 is under 10 µM.

On to `Cc1ccc(-c2nc3cc(C(=O)N[C@@H](Cc4c[nH]c5ccc(O)cc45)C(=O)O)ccc3nc2-c2ccc(Cl)cc2)cc1`, for which the EC50 on HCV NS5B polymerase (setting [3]) was under 10 µM.

For the compound `NC(=O)[C@H](Cc1c[nH]c2ccc(O)cc12)NC(=O)c1ccc2nc(-c3ccc(F)cc3)c(-c3ccc(F)cc3)nc2c1` [R=NH2, X=OH], the concentration for a half-maximal effect (EC50) in assay [1] (setting [4]) lay in the range of 10 to 50 µM. On HCV NS5B polymerase, the half-inhibitory concentration (IC50) is under 10 µM.

For `COC(=O)[C@H](Cc1c[nH]c2ccc(O)cc12)NC(=O)c1ccc2nc(-c3ccc(F)cc3)c(-c3ccc(F)cc3)nc2c1` [R=OCH3, X=OH], in assay [1] (setting [4]), the EC50 was 10 to 50 µM. On HCV NS5B polymerase, this compound returned an IC50 of under 10 µM.

`O=C(N[C@@H](Cc1c[nH]c2ccc(O)cc12)C(=O)O)c1ccc2nc(-c3ccc(F)cc3)c(-c3ccc(F)cc3)nc2c1` [R=OH, X=OH] displayed a concentration for a half-maximal effect (EC50) in assay [1] (setting [4]) of 10 to 50 µM. At HCV NS5B polymerase, the IC50 is under 10 µM.

The values above are taken from patent US7189724B2, “Quinoxaline derivatives having antiviral activity” (Valeant Research and Development, priority 2003, dated 2007).
